This note sets out measurements from article PMC5136371, “Acetylcholinesterase and Cytotoxic Activity of Chemical Constituents of Clutia lanceolata Leaves and its Molecular Docking Study” (Natural Products and Bioprospecting, 2016).

In one data set the target is T1, human recombinant AChE (Homo sapiens, UniProt P22303).
T1 construct: purchased Sigma-Aldrich
Put plainly: biochemical. The method, then: AChE stock solution was prepared by dissolving human recombinant AChE (EC: 3.1.1.7) lyophilized powder (Sigma-Aldrich) in 0.1 M phosphate buffer (pH = 8.0) containing Triton X-100 (0.1 %). […] Increasing concentrations of the tested inhibitor were added to the assay solution and pre-incubated for 5 min at 37 °C with the enzyme followed by the addition of the substrate. Initial rate assays were performed at 37 °C using a Jasco V-530 double beam Spectrophotometer. The absorbance value at 412 nm was recorded for 5 min and enzyme activity was calculated from the slope of the obtained linear trend. Assays were carried out with a blank containing all components except AChE to account for the non-enzymatic reaction. The reaction rates were compared and the percent inhibition due to the presence of tested inhibitors was calculated. […] Tacrine was used as a standard inhibitor.

Data set [1] concerns brine shrimp nauplii (Artemia salina). The experiment in a line: In vivo cytotoxicity, brine shrimp lethality bioassay. The conditions noted are these: 24 h incubation, 10-80 µg/mL, triplicate. The method, then: The in vivo cytotoxicity of compounds (1–4) isolated from the leaves of C. lanceolata was evaluated to brine shrimp nauplii using vincristine sulfate as standard (Fig. S1 †ESI). It is one of the most convenient methods to determine the cytotoxicity of any compound.
Brine shrimp lethality bioassay is commonly used in the bioassay for the bioactive compounds [44, 45]. The in vivo cytotoxicity assay was performed on brine shrimp nauplii (Artemia salina) in accordance with the Mayer method. The egg of brine shrimp were hatched in a tank filled with artificially prepared sea water (brine, 3.8 % NaCl) exposed to incandescent light. Air was supplied at the bottom of the tank with the help of air supplier fitted with tube to keep the shrimps in uniform motion. The assay was performed 24 h after hatching and no food supplement was given during the hatching and experimental periods. A test sample (5.0 mg) was dissolved in 1 mL DMSO to obtain stock solution of 5 mg/mL. Different concentrations of test samples were obtained from stock solution and placed in separate vials, and the volume of each vial was made up to 5 mL with brine to obtain the desired final concentrations (10, 20, 40, 60 and 80 µg/mL). The negative control was prepared in the same manner without the samples. Vincristine sulphate was used as a standard anti-cancer drug. Thirty brine shrimp nauplii were then placed in each vial. After 24 h of incubation, the vials were observed using a magnifying glass, and the number of survivors in each vial were counted and noted. The LD50 values were calculated using the plot of percentage of mortality and logarithm of concentration. All tests were performed in triplicate and expressed as mean.

Data set [2] can be described thus: Solubility and air stability of the isolated crystals. The data set is classed as physicochemical. The note with it: for solubility in organic solvents: all common organic solvents; for stability in air: once isolated.

Each structure is given as a SMILES string. Like-named read-outs stand apart in the source and are kept apart here.

T1 sequence (P22303 32-614): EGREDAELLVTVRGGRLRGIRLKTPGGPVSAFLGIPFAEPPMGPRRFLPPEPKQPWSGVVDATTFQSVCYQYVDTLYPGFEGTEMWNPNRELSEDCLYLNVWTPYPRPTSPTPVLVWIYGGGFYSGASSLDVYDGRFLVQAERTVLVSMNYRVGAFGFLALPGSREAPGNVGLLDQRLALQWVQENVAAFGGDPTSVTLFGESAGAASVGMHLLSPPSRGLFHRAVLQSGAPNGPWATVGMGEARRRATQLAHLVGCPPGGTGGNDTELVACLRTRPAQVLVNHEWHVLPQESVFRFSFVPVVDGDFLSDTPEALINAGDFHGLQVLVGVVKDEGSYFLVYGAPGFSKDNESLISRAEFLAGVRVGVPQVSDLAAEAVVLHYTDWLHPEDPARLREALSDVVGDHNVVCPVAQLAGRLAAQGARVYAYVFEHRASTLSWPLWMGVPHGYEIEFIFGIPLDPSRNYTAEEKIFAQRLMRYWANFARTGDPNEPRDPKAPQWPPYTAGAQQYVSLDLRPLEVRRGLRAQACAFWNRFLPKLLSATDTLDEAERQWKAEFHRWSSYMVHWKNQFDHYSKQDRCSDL

In general, IC50 refers to the point on the concentration scale where inhibition reaches its midpoint. Take `Cc1c(C(=O)O)ccc(O)c1O` [Compound 1, 3,4-dihydroxy-2-methylbenzoic acid]: at human recombinant AChE (human recombinant AChE, pH 8.0, 37 °C, substrate acetylthiocholine iodide 550 µM, triplicate, read-out: IC50 ± SEM for hAChE inhibition), the IC50 worked out at 23.7 ± 0.02 µM. The figures for the LD50 value in data set [1] and in data set [1] (listed as compound 1) were 23.40 ± 0.02 µg/mL and 23.40 µg/mL, respectively.

Turning to `Oc1ccc2ccccc2c1-c1c(O)ccc2ccccc12` [Compound 2, 2,2′-dihydroxy-1,1′-binaphthyl], the IC50 at human recombinant AChE was determined as 21.9 ± 0.05 µM. Besides, the LD50 value in data set [1] was found to be 17.78 ± 0.05 µg/mL. Besides, the LD50 value in data set [1] (listed as compound 2) was determined as 17.78 µg/mL. In addition, in data set [2], the “solubility in organic solvents” value is “soluble in all common organic solvents”, the stability in air result is “air-stable” and the solubility in water entry was “insoluble in water”.

In the case of `Cc1cc(O)c2c(c1)C(=O)c1cc(O)cc(O)c1C2=O` [Compound 3, 1,3,8-trihydroxy-6-methylanthracene-9,10-dione], at human recombinant AChE, the IC50 came out at 14.2 ± 0.06 µM. The LD50 value worked out at 13.80 ± 0.03 µg/mL in data set [1] and 13.80 µg/mL in data set [1] (listed as compound 3).

Regarding `COc1cc(/C=C/C(=O)/C=C(O)/C=C/c2ccc(O)c(OC)c2)ccc1O` [Compound 4, 5-hydroxy-1,7-bis(4-hydroxy-3-methoxyphenyl)hepta-1,4,6-trien-3-one], in data set [1], the LD50 value was determined as 11.66 ± 0.04 µg/mL. Moreover, the LD50 value in data set [1] (listed as compound 4) was determined as 11.66 µg/mL. In data set [2], the “solubility in organic solvents” value was “soluble in all common organic solvents”, the stability in air result was “air-stable” and the solubility in water result was “insoluble in water”.

For the molecule `CC[C@]1(O)C[C@H]2CN(CCc3c([nH]c4ccccc34)[C@@](C(=O)OC)(c3cc4c(cc3OC)N(C=O)[C@H]3[C@@](O)(C(=O)OC)[C@H](OC(C)=O)[C@]5(CC)C=CCN6CC[C@]43[C@@H]65)C2)C1` [Vincristine sulphate, reference compound], the LD50 value turned out to be 8.84 ± 0.01 µg/mL in data set [1] and 8.84 µg/mL in data set [1] (listed as vincristine sulfate).
